{
  "source": "patent US10201564B2",
  "about": "“Methods of using inhaled nitric oxide gas for treatment of acute respiratory distress syndrome in children” (Mallinckrodt Hospital Products IP Limited, priority 2014, dated 2019)",
  "test_system": "pediatric subjects with acute hypoxemic respiratory failure (AHRF)",
  "test": "Pediatric AHRF study: adverse events, serious adverse events, deaths, discontinuations",
  "format": "in vivo, human",
  "conditions": "5 ppm",
  "procedure": "This was a prospective, multicenter, randomized, double-blind, placebo-controlled, parallel-group study of the safety and efficacy of inhaled nitric oxide in pediatric subjects with acute hypoxemic respiratory failure (AHRF). The subjects were randomized to receive either 5 ppm inhaled nitric oxide or placebo.\nNitric Oxide for inhalation at 5 ppm was administered continuously into the inspiratory limb of the ventilator circuit in mechanically ventilated subjects using a blinded version of the INOvent® delivery system.\nSubjects received 100% treatment gas (nitric oxide 5 ppm or placebo [nitrogen gas]) until Day 28 or extubation, whichever occurred first.\nThis was a prospective, multicenter, randomized, double-blind, placebo-controlled, Phase III study to assess the effects of nitric oxide for inhalation in the treatment of acute hypoxic respiratory failure (AHRF) in pediatric subjects. The study population consisted of male and female pediatric subjects, aged 44 weeks postconceptional age to 16 years age, who were admitted to the pediatric intensive care unit (PICU) and who required intubation because of AHRF. The inclusion/exclusion criteria are described in the Patients section below.\nStandardized ventilatory management and weaning procedures were used. Ventilatory management was used based on an “open lung approach” using positive end-expiratory pressure (PEEP) to increase lung volume and limiting tidal volumes to reduce plateau pressures. Subjects received nitric oxide for inhalation at 5 ppm or placebo (100% Grade 5 nitrogen gas) into the inspiratory limb of the ventilator circuit using a blinded version of the INOvent® delivery system. The subjects were treated until Day 28 or extubation, whichever occurred first. Subjects were assessed daily using a spontaneous breathing trial, according to the institution's standard of care. Arterial blood gases (ABG), ventilator settings, methemoglobin, oxygenation index, systolic blood pressure, diastolic blood pressure, Pediatric Risk of Mortality (PRISM) III score, and subject positioning (prone or supine) were performed/recorded at specified times during the study. Selected centers also performed plasma cytokine assays, bronchoalveolar lavage fluid (BALF) assays, and a 6-month follow-up assessment.",
  "key": {"[1]": {"conditions": "AE in which death was the outcome"}, "[2]": {"conditions": "AE not suspected related to study treatment"}},
  "data": [
    {"smiles": "[N]=O", "note": "[Nitric Oxide, nitric oxide]", "values": [
      {"measurement": "most frequently reported AEs", "value": "bradycardia and hypotension"},
      {"measurement": "subjects who died during the follow-up period after treatment", "value": 1},
      {"measurement": "subjects who died during treatment", "value": 2},
      {"measurement": "frequency of treatment discontinuation due to AEs", "setting": "1 of 26 subjects, placebo 6.9%", "value": 3.9, "unit": "%"},
      {"measurement": "subjects with serious AEs (SAEs)", "setting": "1 of 26 subjects, placebo 27.6%", "value": 3.9, "unit": "%"},
      {"measurement": "subjects with severe AEs", "setting": "2 subjects, placebo 34.5%", "value": 7.7, "unit": "%"},
      {"measurement": "subjects reporting AEs", "setting": "16 of 26 subjects, placebo 72.4%", "value": 61.5, "unit": "%"},
      {"measurement": "Bradycardia", "setting": "[1]", "value": "1 (3.8%) n (%)"},
      {"measurement": "Brain edema", "setting": "[1]", "value": "0 (0.0) n (%)"},
      {"measurement": "Cardiac arrest", "setting": "[1]", "value": "0 (0.0) n (%)"},
      {"measurement": "Diabetic ketoacidosis", "setting": "[1]", "value": "0 (0.0) n (%)"},
      {"measurement": "Hemolytic anemia", "setting": "[1]", "value": "0 (0.0) n (%)"},
      {"measurement": "Hepatic failure", "setting": "[1]", "value": "0 (0.0) n (%)"},
      {"measurement": "Hypotension", "setting": "[1]", "value": "1 (3.8%) n (%)"},
      {"measurement": "Intracranial pressure increased", "setting": "[1]", "value": "0 (0.0) n (%)"},
      {"measurement": "Multi-organ failure", "setting": "[1]", "value": "0 (0.0) n (%)"},
      {"measurement": "Pancreatitis", "setting": "[1]", "value": "0 (0.0) n (%)"},
      {"measurement": "Pneumonia, aspergillus", "setting": "[1]", "value": "0 (0.0) n (%)"},
      {"measurement": "Pulmonary hemorrhage", "setting": "[1]", "value": "0 (0.0) n (%)"},
      {"measurement": "Renal failure", "setting": "[1]", "value": "0 (0.0) n (%)"},
      {"measurement": "Renal impairment", "setting": "[1]", "value": "0 (0.0) n (%)"},
      {"measurement": "Sepsis", "setting": "[1]", "value": "0 (0.0) n (%)"},
      {"measurement": "Abdominal distension", "setting": "[2]", "value": "0 (0.0) n (%)"},
      {"measurement": "Acidosis", "setting": "[2]", "value": "1 (3.8%) n (%)"},
      {"measurement": "Agitation", "setting": "[2]", "value": "2 (7.7%) n (%)"},
      {"measurement": "Anemia", "setting": "[2]", "value": "1 (3.8%) n (%)"},
      {"measurement": "Apnea", "setting": "[2]", "value": "1 (3.8%) n (%)"},
      {"measurement": "Arrhythmia", "setting": "[2]", "value": "1 (3.8%) n (%)"},
      {"measurement": "Ascites", "setting": "[2]", "value": "1 (3.8%) n (%)"},
      {"measurement": "Bacteremia", "setting": "[2]", "value": "2 (7.7%) n (%)"},
      {"measurement": "Bacteria, blood", "setting": "[2]", "value": "1 (3.8%) n (%)"},
      {"measurement": "Bacteria, sputum", "setting": "[2]", "value": "0 (0.0) n (%)"},
      {"measurement": "Bladder distension", "setting": "[2]", "value": "0 (0.0) n (%)"},
      {"measurement": "Bradycardia", "setting": "[2]", "value": "3 (11.5%) n (%)"},
      {"measurement": "Brain edema", "setting": "[2]", "value": "0 (0.0) n (%)"},
      {"measurement": "Bronchoalveolar lavage", "setting": "[2]", "value": "1 (3.8%) n (%)"},
      {"measurement": "C-reactive protein increased", "setting": "[2]", "value": "0 (0.0) n (%)"},
      {"measurement": "Cardiac arrest", "setting": "[2]", "value": "0 (0.0) n (%)"},
      {"measurement": "Cerebral artery occlusion", "setting": "[2]", "value": "0 (0.0) n (%)"},
      {"measurement": "Chest tube insertion", "setting": "[2]", "value": "1 (3.8%) n (%)"},
      {"measurement": "Deep vein thrombosis", "setting": "[2]", "value": "2 (7.7%) n (%)"},
      {"measurement": "Device failure", "setting": "[2]", "value": "0 (0.0) n (%)"},
      {"measurement": "Diabetic ketoacidosis", "setting": "[2]", "value": "0 (0.0) n (%)"},
      {"measurement": "Diarrhea", "setting": "[2]", "value": "0 (0.0) n (%)"},
      {"measurement": "Disseminated intravascular coagulation", "setting": "[2]", "value": "0 (0.0) n (%)"},
      {"measurement": "Empyema", "setting": "[2]", "value": "0 (0.0) n (%)"},
      {"measurement": "Feeding disorder", "setting": "[2]", "value": "0 (0.0) n (%)"},
      {"measurement": "Fungemia", "setting": "[2]", "value": "1 (3.8%) n (%)"},
      {"measurement": "Fungus culture positive", "setting": "[2]", "value": "0 (0.0) n (%)"},
      {"measurement": "Fungus urine test positive", "setting": "[2]", "value": "0 (0.0) n (%)"},
      {"measurement": "Gastrointestinal hemorrhage", "setting": "[2]", "value": "0 (0.0) n (%)"},
      {"measurement": "Generalized edema", "setting": "[2]", "value": "0 (0.0) n (%)"},
      {"measurement": "Grangrene", "setting": "[2]", "value": "1 (3.8%) n (%)"},
      {"measurement": "Hematuria", "setting": "[2]", "value": "0 (0.0) n (%)"},
      {"measurement": "Hemoglobinemia", "setting": "[2]", "value": "1 (3.8%) n (%)"},
      {"measurement": "Hemolytic anemia", "setting": "[2]", "value": "0 (0.0) n (%)"},
      {"measurement": "Hemopneumothorax", "setting": "[2]", "value": "0 (0.0) n (%)"},
      {"measurement": "Hemorrhage", "setting": "[2]", "value": "0 (0.0) n (%)"},
      {"measurement": "Hemothorax", "setting": "[2]", "value": "0 (0.0) n (%)"},
      {"measurement": "Hepatic failure", "setting": "[2]", "value": "0 (0.0) n (%)"},
      {"measurement": "Hepatosplenomegaly", "setting": "[2]", "value": "1 (3.8%) n (%)"},
      {"measurement": "Hyperammonemia", "setting": "[2]", "value": "0 (0.0) n (%)"},
      {"measurement": "Hypercalcemia", "setting": "[2]", "value": "1 (3.8%) n (%)"},
      {"measurement": "Hypercapnia", "setting": "[2]", "value": "0 (0.0) n (%)"},
      {"measurement": "Hyperchloremia", "setting": "[2]", "value": "1 (3.8%) n (%)"},
      {"measurement": "Hyperglycemia", "setting": "[2]", "value": "1 (3.8%) n (%)"},
      {"measurement": "Hyperkalemia", "setting": "[2]", "value": "1 (3.8%) n (%)"},
      {"measurement": "Hyperlipidemia", "setting": "[2]", "value": "0 (0.0) n (%)"},
      {"measurement": "Hypernatremia", "setting": "[2]", "value": "2 (7.7%) n (%)"},
      {"measurement": "Hypertension", "setting": "[2]", "value": "0 (0.0) n (%)"},
      {"measurement": "Hypocalcemia", "setting": "[2]", "value": "1 (3.8%) n (%)"},
      {"measurement": "Hypochloremia", "setting": "[2]", "value": "0 (0.0) n (%)"},
      {"measurement": "Hypokalemia", "setting": "[2]", "value": "2 (7.7%) n (%)"},
      {"measurement": "Hypotension", "setting": "[2]", "value": "3 (11.5%) n (%)"},
      {"measurement": "Hypothermia", "setting": "[2]", "value": "0 (0.0) n (%)"},
      {"measurement": "Hypoxia", "setting": "[2]", "value": "0 (0.0) n (%)"},
      {"measurement": "Intracranial pressure increased", "setting": "[2]", "value": "0 (0.0) n (%)"},
      {"measurement": "Labile blood pressure", "setting": "[2]", "value": "0 (0.0) n (%)"},
      {"measurement": "Leukocytosis", "setting": "[2]", "value": "1 (3.8%) n (%)"},
      {"measurement": "Lung infection, pseudomonal", "setting": "[2]", "value": "0 (0.0) n (%)"},
      {"measurement": "Medical device removal", "setting": "[2]", "value": "0 (0.0) n (%)"},
      {"measurement": "Metabolic acidosis", "setting": "[2]", "value": "0 (0.0) n (%)"},
      {"measurement": "Metabolic alkalosis", "setting": "[2]", "value": "1 (3.8%) n (%)"},
      {"measurement": "Multi-organ failure", "setting": "[2]", "value": "0 (0.0) n (%)"},
      {"measurement": "Ocular icterus", "setting": "[2]", "value": "0 (0.0) n (%)"},
      {"measurement": "Oliguria", "setting": "[2]", "value": "0 (0.0) n (%)"},
      {"measurement": "Oxygen saturation decreased", "setting": "[2]", "value": "2 (7.7%) n (%)"},
      {"measurement": "Pancreatitis", "setting": "[2]", "value": "0 (0.0) n (%)"},
      {"measurement": "Pleural effusion", "setting": "[2]", "value": "0 (0.0) n (%)"},
      {"measurement": "Pneumomediastinum", "setting": "[2]", "value": "0 (0.0) n (%)"},
      {"measurement": "Pneumonia", "setting": "[2]", "value": "1 (3.8%) n (%)"},
      {"measurement": "Pneumonia, aspergillus", "setting": "[2]", "value": "0 (0.0) n (%)"},
      {"measurement": "Pneumonia, staphylococcal", "setting": "[2]", "value": "1 (3.8%) n (%)"},
      {"measurement": "Pneumothorax", "setting": "[2]", "value": "2 (7.7%) n (%)"},
      {"measurement": "Pruritus", "setting": "[2]", "value": "0 (0.0) n (%)"},
      {"measurement": "Pseudomonal sepsis", "setting": "[2]", "value": "1 (3.8%) n (%)"},
      {"measurement": "Pulmonary hemorrhage", "setting": "[2]", "value": "0 (0.0) n (%)"},
      {"measurement": "Pulmonary hypertension", "setting": "[2]", "value": "0 (0.0) n (%)"},
      {"measurement": "Pyrexia", "setting": "[2]", "value": "0 (0.0) n (%)"},
      {"measurement": "Renal failure", "setting": "[2]", "value": "1 (3.8%) n (%)"},
      {"measurement": "Renal failure, acute", "setting": "[2]", "value": "0 (0.0) n (%)"},
      {"measurement": "Renal impairment", "setting": "[2]", "value": "0 (0.0) n (%)"},
      {"measurement": "Respiratory acidosis", "setting": "[2]", "value": "0 (0.0) n (%)"},
      {"measurement": "Respiratory failure", "setting": "[2]", "value": "1 (3.8%) n (%)"},
      {"measurement": "Sepsis", "setting": "[2]", "value": "0 (0.0) n (%)"},
      {"measurement": "Skin injury", "setting": "[2]", "value": "0 (0.0) n (%)"}
    ]}
  ]
}
